Laboratory results reported in ChEMBL document CHEMBL1201862, “PubChem BioAssay data set” (2004).
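How tested: cells in 96-well plates exposed to compound for 48 hours at five concentrations. At the GI50, growth is halved.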 The source made the active and inactive calls. No stated cut-off is given here; in the data, active = GI50 up to about 1.1 µM and inactive = higher.

What was measured:
Experiment in all cases: NCI anticancer screen, dose series, 48 h
SF-295 = test system: SF-295
SF-539 = test system: SF-539
OVCAR-5 = test system: OVCAR-5
HOP-92 = test system: HOP-92
OVCAR-8 = test system: OVCAR-8
A498 = test system: A498
OVCAR-4 = test system: OVCAR-4
MOLT-4 = test system: MOLT-4
786-0 = test system: 786-0
NCI-H522 = test system: NCI-H522
MCF7 = test system: MCF7
MDA-MB-435 = test system: MDA-MB-435
A549 = test system: A549
SK-MEL-5 = test system: SK-MEL-5
HCT-116 = test system: HCT-116
LOX IMVI = test system: LOX IMVI
HCT-15 = test system: HCT-15
DU-145 = test system: DU-145
CCRF-CEM = test system: CCRF-CEM
HCC 2998 = test system: HCC 2998

Structure (SMILES) | GI50 (SF-295) | GI50 (SF-539) | GI50 (OVCAR-5) | GI50 (HOP-92) | GI50 (OVCAR-8) | GI50 (A498) | GI50 (OVCAR-4) | GI50 (MOLT-4) | GI50 (786-0) | GI50 (NCI-H522) | GI50 (MCF7) | GI50 (MDA-MB-435) | GI50 (A549) | GI50 (SK-MEL-5) | GI50 (HCT-116) | GI50 (LOX IMVI) | GI50 (HCT-15) [µM] | GI50 (DU-145) | GI50 (CCRF-CEM) | GI50 (HCC 2998)
O=C(CSc1ncnc2[nH]cnc12)c1ccccc1 | > 100 µM (inactive) | > 100 µM (inactive) | > 57.1 µM (inactive) | 50.2 µM (inactive) | > 100 µM (inactive) | > 100 µM (inactive) | > 48 µM (inactive) | > 65.6 µM (inactive) | > 100 µM (inactive) | 47.4 µM (inactive) | > 100 µM (inactive) | > 100 µM (inactive) | > 100 µM (inactive) | 86.3 µM (inactive) | > 100 µM (inactive) | 79.4 µM (inactive) | > 100 | > 100 µM (inactive) | > 65.8 µM (inactive) | 
c1ccc2c(c1)ccc1ncccc12 | > 100 µM (inactive) | > 100 µM (inactive) | > 100 µM (inactive) | 44.6 µM (inactive) | > 100 µM (inactive) | 55.8 µM (inactive) | > 100 µM (inactive) | > 100 µM (inactive) | > 100 µM (inactive) | > 100 µM (inactive) | > 100 µM (inactive) | > 100 µM (inactive) | > 100 µM (inactive) | 75.2 µM (inactive) | > 100 µM (inactive) | > 100 µM (inactive) | 58.2 | > 100 µM (inactive) |  | > 100 µM (inactive)
Cc1nc(C)c(N2CCN(C(=O)NC(CCC(=O)O)C(=O)O)CC2)c(O)n1 (stereo not given) | > 100 µM (inactive) | > 100 µM (inactive) | > 100 µM (inactive) | > 100 µM (inactive) | > 100 µM (inactive) | > 100 µM (inactive) | > 100 µM (inactive) | > 100 µM (inactive) | > 100 µM (inactive) | > 100 µM (inactive) | > 100 µM (inactive) | > 100 µM (inactive) | > 100 µM (inactive) |  | > 100 µM (inactive) | > 100 µM (inactive) | > 100 | > 100 µM (inactive) | > 100 µM (inactive) | > 100 µM (inactive)
COC(=O)C1=C(C(=O)OC)C(C(=O)c2ccc(Br)cc2)N2N=C(c3ccc(Cl)cc3)C=CC12 (stereo not given) | 67 µM (inactive) |  | > 100 µM (inactive) | 72.1 µM (inactive) | > 100 µM (inactive) | > 100 µM (inactive) | > 100 µM (inactive) | > 100 µM (inactive) | > 100 µM (inactive) | 26.2 µM (inactive) | 82.8 µM (inactive) | > 100 µM (inactive) | 98.2 µM (inactive) | > 100 µM (inactive) | > 100 µM (inactive) | > 100 µM (inactive) | > 100 | > 100 µM (inactive) | > 100 µM (inactive) | > 100 µM (inactive)
N=C(N)/N=C(\N)Nc1cnccn1 | > 100 µM (inactive) | > 100 µM (inactive) |  | > 100 µM (inactive) | > 100 µM (inactive) | > 100 µM (inactive) | > 100 µM (inactive) | > 100 µM (inactive) | > 100 µM (inactive) | > 100 µM (inactive) | > 100 µM (inactive) | > 100 µM (inactive) | > 100 µM (inactive) | > 100 µM (inactive) | > 100 µM (inactive) | > 100 µM (inactive) | > 100 | > 100 µM (inactive) | > 100 µM (inactive) | > 100 µM (inactive)
CC(C)OP(=O)(OC(C)C)C(C(C)C)N(C)/C(F)=N/C(F)(F)F (stereo not given) | > 100 µM (inactive) | > 100 µM (inactive) | > 100 µM (inactive) | > 100 µM (inactive) | > 100 µM (inactive) | > 100 µM (inactive) |  | 75.7 µM (inactive) | > 100 µM (inactive) | > 100 µM (inactive) | > 100 µM (inactive) | > 100 µM (inactive) | > 100 µM (inactive) | > 100 µM (inactive) | > 100 µM (inactive) | > 100 µM (inactive) | > 100 | > 100 µM (inactive) | > 100 µM (inactive) | > 100 µM (inactive)
Cc1cc2c(cc1Cl)SC(c1ccccc1)C(=O)NS2(=O)=O (stereo not given) | 28.3 µM (inactive) | 26.7 µM (inactive) | 45.9 µM (inactive) | 30.5 µM (inactive) | 36.2 µM (inactive) | 26.9 µM (inactive) | 35.4 µM (inactive) | 26 µM (inactive) | 31.6 µM (inactive) | 25.9 µM (inactive) | 34 µM (inactive) | 35.1 µM (inactive) |  | 21.6 µM (inactive) | 20.5 µM (inactive) | 31.6 µM (inactive) | 25 | 34.9 µM (inactive) | 47.4 µM (inactive) | 30.3 µM (inactive)
CCC(C(=O)C(=O)C(CC)P1(=O)OC(C)(C)CN1C(C)(C)C)P1(=O)OC(C)(C)CN1C(C)(C)C (stereo not given) | > 100 µM (inactive) | > 100 µM (inactive) |  | 45.9 µM (inactive) | > 100 µM (inactive) | > 100 µM (inactive) |  | 22.2 µM (inactive) | > 100 µM (inactive) | > 100 µM (inactive) | 68.5 µM (inactive) | > 100 µM (inactive) | > 100 µM (inactive) | > 100 µM (inactive) | > 100 µM (inactive) | > 100 µM (inactive) | > 100 | > 100 µM (inactive) | > 100 µM (inactive) | > 100 µM (inactive)
C/C(=N/NC(=S)N1CCN(C(=S)N/N=C(/C)c2ccccn2)CC1)c1ccccn1 | 6.25 µM (inactive) | 6.4 µM (inactive) | > 66.8 µM (inactive) | > 46.2 µM (inactive) | 4.13 µM (inactive) | 8.81 µM (inactive) | 8.2 µM (inactive) | 4.79 µM (inactive) | 6.87 µM (inactive) | 7.64 µM (inactive) | 5.24 µM (inactive) | 28 µM (inactive) | 9.12 µM (inactive) | 6.97 µM (inactive) | 6.89 µM (inactive) | 5.94 µM (inactive) | 2.15 | 5.86 µM (inactive) | 0.682 µM (active) | 22.5 µM (inactive)
NC1=Nc2cc(Cl)ccc2Sc2nc3ccccc3n21 | > 95.7 µM (inactive) | > 100 µM (inactive) |  | 16.1 µM (inactive) | 5.09 µM (inactive) | > 100 µM (inactive) | > 20.8 µM (inactive) | 2.61 µM (inactive) | 14.2 µM (inactive) | 3.92 µM (inactive) | > 59.2 µM (inactive) | > 100 µM (inactive) | > 24.2 µM (inactive) | 4.92 µM (inactive) | 1.87 µM (inactive) | 4.4 µM (inactive) | > 100 | > 100 µM (inactive) | 1.22 µM (inactive) | > 100 µM (inactive)
COc1ccc2nc3ccc(OC)cc3c(SCc3ccccc3)c2c1 | > 91 µM (inactive) | > 89.3 µM (inactive) | > 100 µM (inactive) | > 100 µM (inactive) | > 84.1 µM (inactive) | > 100 µM (inactive) | > 100 µM (inactive) | > 41.6 µM (inactive) | 76 µM (inactive) | > 84.9 µM (inactive) | > 55.3 µM (inactive) | > 76.9 µM (inactive) | > 82.4 µM (inactive) | > 100 µM (inactive) | > 74 µM (inactive) | > 83.4 µM (inactive) | > 95.5 | > 100 µM (inactive) | > 52.7 µM (inactive) | 38.8 µM (inactive)
C=CC1(C)OC2(CCN(C(=O)OCC)CC2)OC1C (stereo not given) | > 100 µM (inactive) | > 100 µM (inactive) | > 100 µM (inactive) | > 100 µM (inactive) | > 100 µM (inactive) | > 100 µM (inactive) | > 100 µM (inactive) | 34.8 µM (inactive) | > 100 µM (inactive) | > 100 µM (inactive) | > 100 µM (inactive) | > 100 µM (inactive) | > 100 µM (inactive) | > 100 µM (inactive) |  | > 100 µM (inactive) | > 100 | > 100 µM (inactive) | > 100 µM (inactive) | > 100 µM (inactive)
Cc1cn2c(/C=C3/C(=O)Nc4cccc(Cl)c43)c(Cl)nc2s1 | 36.3 µM (inactive) |  | > 100 µM (inactive) | 34.3 µM (inactive) | > 100 µM (inactive) | 63.2 µM (inactive) | > 100 µM (inactive) | > 100 µM (inactive) | 18.5 µM (inactive) | > 100 µM (inactive) | > 100 µM (inactive) | > 100 µM (inactive) | 27 µM (inactive) |  | 60.1 µM (inactive) | > 100 µM (inactive) | > 100 | > 100 µM (inactive) | 13.5 µM (inactive) | 6.34 µM (inactive)
CCOC(=O)[C@@H]1ON2O[C@H](OC3CCCCC3c3ccccc3)C[C@H]3OC(=O)[C@@H]1C32 (stereo not given in full) | > 100 µM (inactive) | > 100 µM (inactive) | > 100 µM (inactive) | > 100 µM (inactive) | > 100 µM (inactive) | > 100 µM (inactive) |  | > 100 µM (inactive) | > 100 µM (inactive) | 67.6 µM (inactive) | > 100 µM (inactive) | > 100 µM (inactive) | > 100 µM (inactive) | > 100 µM (inactive) | > 100 µM (inactive) | > 100 µM (inactive) | > 100 | > 100 µM (inactive) | 0.209 µM (active) | 64.6 µM (inactive)
O=C(O)[C@@H]1CCCN1 [PROLINE] | > 100 µM (inactive) | > 100 µM (inactive) | > 100 µM (inactive) | > 100 µM (inactive) | > 100 µM (inactive) | > 100 µM (inactive) | > 100 µM (inactive) | > 100 µM (inactive) | > 100 µM (inactive) | > 100 µM (inactive) | > 100 µM (inactive) | > 100 µM (inactive) | > 100 µM (inactive) | > 100 µM (inactive) | > 100 µM (inactive) | > 100 µM (inactive) | > 100 | > 100 µM (inactive) |  | > 100 µM (inactive)
